From patent US8124743B2, “Purification of a bivalently active antibody using a non-chromatographic method” (President and Fellows of Harvard College, priority 2006, dated 2012)
“And” between values parts separate entries of the source, which are not always exact repeats. Identical values can stand only once. Like-named read-outs stand apart in the source and are kept apart here.

Columns and labels:
[1] = molecular target: rat anti-2,4-dinitrophenyl IgG (IgG^DNP, clone LO-DNP-2); assay: Monovalent dissociation constant of hapten for anti-2,4-DNP IgG, method not given; assay type: binding; details: read-out: monovalent Kd (Kd^affinity) of hapten for IgG^DNP
[2] = tested on: anti-2,4-DNP IgG (clone LO-DNP-2); assay: SE-HPLC of formation and dissociation of cyclic IgG aggregates; assay type: biochemical, rat; details: for dissociation of IgG aggregates by excess monovalent hapten: about 1 mM monovalent hapten, SE-HPLC
Method: We used size-exclusion chromatography (SE-HPLC) to follow the purification process. This analytical technique has the advantage that we can resolve monomeric, dimeric, trimeric, and tetrameric antibody aggregates on the column. It has the disadvantage that these aggregates must be kinetically stable (in the absence of competing monovalent hapten) over the time required to carry out a separation (retention time, tr˜15 min).
Validation of Size-Exclusion Chromatography (SE-HPLC) to Examine Aggregates of IgG. Size-exclusion chromatography (SE-HPLC) can resolve the cyclic aggregates of antibodies from each other and from monomeric IgG (FIG. 6). The commercially available purified IgG gave predominantly one peak by SE-HPLC (FIG. 6a) at a retention time (˜15.6 min) consistent with the size of monomeric IgG (˜150 kDa) based on a molecular weight calibration plot (FIG. 3). We formed aggregates in >90% conversion by incubating IgG (2 μM) with 5-10 equivalents of bi and trivalent molecules in chart 1 for 12 hours. […] These antibody aggregates dissociated rapidly (<1 min) in the presence of excess monovalent hapten (6) (1 μM anti-2,4-DNP; 1 μM 1; 1000 μM 6) (FIG. 6c).

[3] = molecular target: IgG from clone (LO-DNP-2), anti-DNP; assay: Fluorescence titration (tryptophan quenching) for the monovalent dissociation constant; assay type: binding, rat; details: read-out: monovalent dissociation constant (Kd^affinity)
Method: Determination of dissociation constant of antibody and 2,4-DNP. The binding of DNP derivatives to anti-DNP quenches the fluorescence of tryptophan residues of the antibody. We conducted a fluorescence titration to determine the monovalent dissociation constant (Kd^affinity) of the IgG from clone (LO-DNP-2) for Ac2DNP-Lys, and obtained a value of 0.40±0.08 nM.

Compound | Kd [1] | dissociation of IgG aggregates by excess monovalent hapten [2] | further results
O=[N+]([O-])c1ccc(OC2O[C@H](CO)[C@@H](O)[C@H](O)[C@H]2O)cc1 (stereo partly shown) [compound 7, 4-nitrophenylglucose] | ~500 nM | completely dissociated | 
2,4-dinitrophenyl [2,4-DNP] |  |  | Kd ([1]; listed as DNP): 8 nM and ~8 nM
Ac2DNP-Lys |  |  | Kd [3]: 0.4 ± 0.08 nM
4-nitrophenyl [4-NP] | 500 nM and ~500 nM |  | 
NCCCC[C@H](Nc1ccc([N+](=O)[O-])cc1[N+](=O)[O-])C(=O)O [compound 6, 2,4-dinitrophenyl lysine] |  | completely dissociated | time for dissociation of antibody aggregates by excess monovalent hapten ([2]; 1 μM anti-2,4-DNP, 1 μM 1, 1000 μM 6): < 1 min
